In US20230066011A1, “PYRROLOPYRIMIDINE DERIVATIVE, AND PHARMACEUTICAL COMPOSITION FOR PREVENTING OR TREATING PROTEIN KINASE-RELATED DISEASE COMPRISING SAME AS ACTIVE INGREDIENT” (VORONOI CO., LTD., priority 2019, published 2023):

How the values were obtained:
[1] = target: T1, human GST-DYRK1A (Homo sapiens, UniProt Q13627); experiment: GST-DYRK1A enzyme inhibition, ADP-Glo kinase assay; format: biochemical; details: ATP 10 μM, GST-DYRK1A full length, read-out: DYRK1 IC50
T1 construct: purified human GST-DYRK1A (full length, Thermo Scientifics) enzyme; purchased Thermo Scientifics
Outline: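 Full-length enzyme (10 ng) was incubated with 10 μM ATP and a specific substrate for 1 h at 25 °C in 40 mM Tris-HCl pH 7.4, 20 mM MgCl2, 0.5 mg/mL BSA, 50 μM DTT. Luminescence was read against a solvent control, and IC50 values were derived from 3 data sets.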

[2] = target: T2, human GST-CLK1 (Homo sapiens, UniProt P49759); experiment: GST-CLK1 enzyme inhibition, ADP-Glo kinase assay; format: biochemical; details: ATP 10 μM, GST-CLK1 129-end
T2 construct: purified human GST-CLK1 (129-end, SignalChem) enzyme; purchased SignalChem
T2 sequence (P49759 129-484 limits assumed): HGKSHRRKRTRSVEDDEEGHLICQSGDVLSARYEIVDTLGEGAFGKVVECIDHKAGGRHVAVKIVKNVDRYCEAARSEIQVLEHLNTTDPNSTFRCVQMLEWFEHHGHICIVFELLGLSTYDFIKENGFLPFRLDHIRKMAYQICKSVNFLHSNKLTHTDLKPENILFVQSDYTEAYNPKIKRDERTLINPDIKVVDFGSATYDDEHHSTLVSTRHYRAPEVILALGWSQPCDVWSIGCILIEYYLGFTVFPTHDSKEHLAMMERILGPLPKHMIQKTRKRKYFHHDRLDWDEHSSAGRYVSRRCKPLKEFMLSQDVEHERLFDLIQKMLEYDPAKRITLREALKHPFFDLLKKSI
Outline: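 ADP-Glo luminescence read-out, relative to untreated solvent control, gave IC50 (nM) from triplicate data sets. Reactions ran an hour at 25° C with 3 ng GST-CLK1 (residues 129-end), 10 μM ATP and specific substrate in Tris-HCl pH 7.4 buffer with MgCl2, BSA and DTT.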

[3] = test system: MDA-MB-468 cell line; experiment: Inhibition of proliferation of MDA-MB-468 cancer cells (Cell Titer-Glo); format: cell-based; details: Homo sapiens, MDA-MB-468, 72 hours
Description: (§1) To evaluate an inhibitory effect on the proliferation of cancer cells, each of an MDA-MB-231 cell line (Korean Cell Line Bank #30026) and an MDA-MB-468 cell line as triple-negative breast cancer cell lines, and SHP-77 (ATCC #CRL-2195) as a small-cell lung cancer cell line was cultured in DMEM (HyClone #SH30243) or an RPMI medium (HyClone #SH3027.01) to analyze a cell growth rate. More specifically, a cell line was plated on a 96-well flat bottom plate (Corning #3903) at a density of 2,000 cells/100 μL per well, and then treated with 11 concentrations of the Example compound, a solution of which was diluted 3-fold so that a final concentration of the compound was 10.000000, 3.333333, 1.111111, 0.370370, 0.123457, 0.041152, 0.013717, 0.004572, 0.001524, 0.000508, and 0.000169 μM. After 72 hours, each of the culture media was treated with 100 μL of Cell Titer-Glo (Promega G7573), and then cultured at room temperature for 10 minutes. Then, a degree of luminescence was measured using a microplate reader. A GI50 value was calculated from the measured degree of luminescence using Prism (Version 8.2 GraphPad) software.

[4] = test system: MDA-MB-231 cell line; experiment: Inhibition of proliferation of MDA-MB-231 cancer cells (Cell Titer-Glo); format: cell-based; details: Homo sapiens, 72 hours
Description: as §1

[5] = target: LRRK2 (G2019S) (Homo sapiens, UniProt Q5S007, G2019S); experiment: LRRK2 G2019S enzyme inhibition, ADP-Glo kinase assay; format: biochemical; design: purchased SignalChem L10-12GG; details: ATP 25 μM
LRRK2 (G2019S), sequence (Q5S007 970-2527 G2019S limits assumed): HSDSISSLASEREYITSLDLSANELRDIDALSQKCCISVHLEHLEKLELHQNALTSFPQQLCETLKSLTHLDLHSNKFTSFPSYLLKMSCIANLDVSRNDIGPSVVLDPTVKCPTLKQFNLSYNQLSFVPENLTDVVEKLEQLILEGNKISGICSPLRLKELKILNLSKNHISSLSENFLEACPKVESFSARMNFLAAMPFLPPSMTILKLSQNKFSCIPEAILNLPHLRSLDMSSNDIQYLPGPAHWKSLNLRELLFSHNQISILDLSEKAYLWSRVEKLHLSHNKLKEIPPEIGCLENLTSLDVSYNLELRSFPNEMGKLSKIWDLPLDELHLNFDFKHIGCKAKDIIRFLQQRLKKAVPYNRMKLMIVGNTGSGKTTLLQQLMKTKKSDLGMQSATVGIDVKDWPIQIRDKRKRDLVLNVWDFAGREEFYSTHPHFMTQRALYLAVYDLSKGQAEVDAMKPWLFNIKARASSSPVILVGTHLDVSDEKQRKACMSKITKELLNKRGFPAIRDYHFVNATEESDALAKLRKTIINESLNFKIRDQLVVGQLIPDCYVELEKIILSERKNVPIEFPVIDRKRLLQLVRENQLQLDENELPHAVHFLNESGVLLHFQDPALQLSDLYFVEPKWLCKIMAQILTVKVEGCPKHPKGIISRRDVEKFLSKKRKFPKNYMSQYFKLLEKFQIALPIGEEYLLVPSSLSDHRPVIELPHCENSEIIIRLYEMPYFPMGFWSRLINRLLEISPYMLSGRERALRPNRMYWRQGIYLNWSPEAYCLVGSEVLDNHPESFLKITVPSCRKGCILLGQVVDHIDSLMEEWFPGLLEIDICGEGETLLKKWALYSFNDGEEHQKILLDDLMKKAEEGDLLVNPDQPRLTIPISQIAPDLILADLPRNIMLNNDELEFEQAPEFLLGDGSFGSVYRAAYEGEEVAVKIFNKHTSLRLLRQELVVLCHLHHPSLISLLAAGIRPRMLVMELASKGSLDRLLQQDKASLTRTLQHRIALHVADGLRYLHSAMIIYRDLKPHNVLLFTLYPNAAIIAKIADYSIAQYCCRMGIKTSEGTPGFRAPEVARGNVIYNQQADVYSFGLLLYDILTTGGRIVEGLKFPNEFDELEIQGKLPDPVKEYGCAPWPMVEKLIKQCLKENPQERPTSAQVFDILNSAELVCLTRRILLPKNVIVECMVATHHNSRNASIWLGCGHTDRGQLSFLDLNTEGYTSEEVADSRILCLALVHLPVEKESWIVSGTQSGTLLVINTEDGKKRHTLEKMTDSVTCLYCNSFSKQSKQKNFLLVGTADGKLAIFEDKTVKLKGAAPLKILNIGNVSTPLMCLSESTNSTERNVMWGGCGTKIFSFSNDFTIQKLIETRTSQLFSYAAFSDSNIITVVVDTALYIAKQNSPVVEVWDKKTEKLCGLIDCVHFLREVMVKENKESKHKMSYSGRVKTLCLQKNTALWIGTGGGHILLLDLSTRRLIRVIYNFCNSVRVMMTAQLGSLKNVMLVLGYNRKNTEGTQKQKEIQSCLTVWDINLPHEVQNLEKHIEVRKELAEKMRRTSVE
Outline: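 IC50 derived from luminescent ADP-Glo readout against untreated solvent control, twelve final compound concentrations from 50 μM downward. Reaction: recombinant human LRRK2 G2019S enzyme, 25 μM ATP, substrate, pH 7.4 Tris buffer with MgCl2/BSA/DTT, 25° C. for 2 hours.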

[6] = target: LRRK2 (Homo sapiens, UniProt Q5S007); experiment: LRRK2 enzyme inhibition, ADP-Glo kinase assay; format: biochemical; design: purchased Invitrogen PR8604B; details: ATP 10 μM
LRRK2, sequence (Q5S007 970-2527 limits assumed): as the sequence (Q5S007 970-2527 G2019S limits assumed) above, with S1050G counted along it
Outline: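 ADP-Glo luminescent read-out of ADP formed by purified human LRRK2 enzyme (25 ng), 10 μM ATP, 0.2 μg substrate, 25° C for 2 h, Tris-HCl pH 7.4 buffer with MgCl2, BSA, DTT. Inhibition versus untreated solvent control over twelve final concentrations (50 μM downward) gives IC50.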

Row | IC50 [1] | IC50 [2] | GI50 [3] | GI50 [4] | IC50 [5] | IC50 [6] | Structure (SMILES)
1 | 301 to 1000 nM | 301 to 1000 nM | 301 to 1000 nM |  |  |  | O=C(c1ccc(Nc2nc(NC3CCCC3)c3cc[nH]c3n2)c2c1CCO2)N1CCC(N2CCOCC2)CC1 [Example 241, (7-((4-(cyclopentylamino)-7H-pyrrolo[2,3-d]pyrimidin-2-yl)amino)-2,3-dihydrobenzofuran-4-yl)(4-morpholinopiperidin-1-yl)methanone]
2 | 301 to 1000 nM | 101 to 300 nM | < 50 nM | < 50 nM | < 100 nM |  | COc1cc(S(=O)(=O)N2CCC(N3CCOCC3)CC2)ccc1Nc1nc(NC(C)C)c2c(C#N)c[nH]c2n1 [Example 85, 4-(isopropylamino)-2-((2-methoxy-4-((4-morpholinopiperidin-1-yl)sulfonyl)phenyl)amino)-7H-pyrrolo[2,3-d]pyrimidine-5-carbonitrile]
3 | 301 to 1000 nM | 301 to 1000 nM | 51 to 100 nM | 101 to 300 nM |  | < 100 nM | N#Cc1c[nH]c2nc(Nc3ccc(C(=O)N4CCOCC4)c4c3OCCO4)nc(NC3CCCC3)c12 [Example 126, 4-(cyclopentylamino)-2-((8-(morpholine-4-carbonyl)-2,3-dihydrobenzo[b][1,4]dioxin-5-yl)amino)-7H-pyrrolo[2,3-d]pyrimidine-5-carbonitrile]
4 |  | 301 to 1000 nM | < 50 nM | < 50 nM |  |  | COc1cc(P(C)(C)=O)ccc1Nc1nc(NC2CCCCC2)c2c(C#N)c[nH]c2n1 [Example 117, 4-(cyclohexylamino)-2-((4-(dimethylphosphoryl)-2-methoxyphenyl)amino)-7H-pyrrolo[2,3-d]pyrimidine-5-carbonitrile]
5 | 301 to 1000 nM | 301 to 1000 nM | 301 to 1000 nM |  |  |  | COc1cc(P2(=O)CCN(C3CC3)CC2)ccc1Nc1nc(NC2CCCC2)c2cc[nH]c2n1 [Example 242, 4-(4-((4-(cyclopentylamino)-7H-pyrrolo[2,3-d]pyrimidin-2-yl)amino)-3-methoxyphenyl)-1-cyclopropyl-1,4-azaphosphinane 4-oxide]
6 | 301 to 1000 nM | 301 to 1000 nM | < 50 nM |  |  | < 100 nM | COc1cc(S(=O)(=O)N2CCOCC2)ccc1Nc1nc(NC(C)C)c2c(C#N)c[nH]c2n1 [Example 250, 4-(isopropylamino)-2-((2-methoxy-4-(morpholinosulfonyl)phenyl)amino)-7H-pyrrolo[2,3-d]pyrimidine-5-carbonitrile]
7 | 301 to 1000 nM | 301 to 1000 nM | 51 to 100 nM | < 50 nM |  |  | CC[C@H](C)Nc1nc(Nc2ccc(S(=O)(=O)N3CCC(N4CCOCC4)CC3)cc2OC)nc2[nH]cc(C#N)c12 [Example 263, (S)-4-(sec-butylamino)-2-((2-methoxy-4-((4-morpholinopiperidin-1-yl)sulfonyl)phenyl)amino)-7H-pyrrolo[2,3-d]pyrimidine-5-carbonitrile]
8 | 301 to 1000 nM | 301 to 1000 nM | 301 to 1000 nM | 101 to 300 nM | < 100 nM |  | COc1cc(S(=O)(=O)N2CCOCC2)ccc1Nc1nc(N[C@@H]2CCOC2)c2c(C(F)(F)F)c[nH]c2n1 [Example 382, (R)-N^2-(2-methoxy-4-(morpholino-sulfonyl)phenyl)-N^4-(tetrahydrofuran-3-yl)-5-(trifluoromethyl)-7H-pyrrolo[2,3-d]pyrimidine-2,4-diamine]
9 | 301 to 1000 nM | 301 to 1000 nM | 51 to 100 nM |  |  |  | O=C(c1ccc(Nc2nc(NC3CCCCC3)c3cc[nH]c3n2)c2c1CCO2)N1CCC(N2CCOCC2)CC1 [Example 245, (7-((4-(cyclohexylamino)-7H-pyrrolo[2,3-d]pyrimidin-2-yl)amino)-2,3-dihydrobenzofuran-4-yl)(4-morpholinopiperidin-1-yl)methanone]
10 | < 100 nM | < 100 nM | 301 to 1000 nM |  |  | < 100 nM | COCCNc1nc(Nc2ccc(P3(=O)CCN(C4CC4)CC3)cc2OC)nc2[nH]cc(C(F)(F)F)c12 [Example 412, 1-cyclopropyl-4-(3-methoxy-4-((4-((2-methoxyethyl)amino)-5-(trifluoromethyl)-7H-pyrrolo[2,3-d]pyrimidin-2-yl)amino)phenyl)-1,4-azaphosphinane 4-oxide]
11 | 301 to 1000 nM | 301 to 1000 nM | < 50 nM |  |  | < 100 nM | O=C(c1ccc(Nc2nc(NC3CCCCC3)c3cc[nH]c3n2)c2c1CCO2)N1CCOCC1 [Example 244, (7-((4-(cyclohexylamino)-7H-pyrrolo[2,3-d]pyrimidin-2-yl)amino)-2,3-dihydrobenzofuran-4-yl)(morpholino)methanone]
12 | 301 to 1000 nM | < 100 nM | < 50 nM |  |  | < 100 nM | N#Cc1c[nH]c2nc(Nc3ccc(C(=O)N4CCOCC4)c4c3OCC4)nc(NC3CCCC3)c12 [Example 319, 4-(cyclo-pentylamino)-2-((4-(morpholine-4-carbonyl)-2,3-dihydrobenzo-furan-7-yl)amino)-7H-pyrrolo[2,3-d]pyrimidine-5-carbonitrile]
13 | 301 to 1000 nM | 301 to 1000 nM | 301 to 1000 nM | 101 to 300 nM | < 100 nM |  | COc1cc(S(=O)(=O)N2CCOCC2)ccc1Nc1nc(N[C@H]2CCOC2)c2c(C(F)(F)F)c[nH]c2n1 [Example 383, (S)-N^2-(2-methoxy-4-(morpholino-sulfonyl)phenyl)-N^4-(tetrahydrofuran-3-yl)-5-(trifluoromethyl)-7H-pyrrolo[2,3-d]pyrimidine-2,4-diamine]
14 | < 100 nM | < 100 nM | 301 to 1000 nM |  |  |  | N#Cc1c[nH]c2nc(Nc3ccc(C(=O)N4CCC(N5CCOCC5)CC4)c4c3OCC4)nc(NC3CCCC3)c12 [Example 320, 4-(cyclo-pentylamino)-2-((4-(4-morpholino-piperidine-1-carbonyl)-2,3-dihydro-benzofuran-7-yl)amino)-7H-pyrrolo[2,3-d]pyrimidine-5-carbonitrile]
15 | 301 to 1000 nM | 301 to 1000 nM | 101 to 300 nM | 51 to 100 nM |  | < 100 nM | CCNc1nc(Nc2ccc(S(=O)(=O)N3CCC(N4CCOCC4)CC3)c3c2OCC3)nc2[nH]cc(C(F)(F)F)c12 [Example 467, N^4-ethyl-N^2-(4-((4-morpholino-piperidin-1-yl)sulfonyl)-2,3-dihydrobenzo-furan-7-yl)-5-(trifluoromethyl)-7H-pyrrolo[2,3-d]pyrimidine-2,4-diamine]
16 | 301 to 1000 nM | 301 to 1000 nM | 301 to 1000 nM |  |  |  | COc1cc(P2(=O)CCN(C3CCOCC3)CC2)ccc1Nc1nc(NC2CCCC2)c2cc[nH]c2n1 [Example 243, 4-(4-((4-(cyclopentylamino)-7H-pyrrolo[2,3-d]pyrimidin-2-yl)amino)-3-methoxyphenyl)-1-(tetrahydro-2H-pyran-4-yl)-1,4-azaphosphinane 4-oxide]
17 | 301 to 1000 nM | 101 to 300 nM | < 50 nM |  |  | 101 to 300 nM | N#Cc1c[nH]c2nc(Nc3ccc(C(=O)N4CCOCC4)c4c3OCC4)nc(NC3CCCCC3)c12 [Example 321, 4-(cyclo-hexylamino)-2-((4-(morpholine-4-carbonyl)-2,3-dihydrobenzo-furan-7-yl)amino)-7H-pyrrolo[2,3-d]pyrimidine-5-carbonitrile]
